Laboratory results as given in US20050100983A1, “Cell-free methods for identifying compounds that affect toll-like receptor 9 (TLR9) signaling” (Coley Pharmaceutical GmbH, priority 2003, published 2005).

How the values were obtained:
[1] = test system: mTLR9mut (D535→A and Y537→A); assay: NF-κB luciferase assay, HEK 293 cells transfected with mutated full length mTLR9; format: cell-based, murine; details: 1 μM CpG-DNA
Description: FIG. 3D is a bar graph depicting activation of mTLR9- and mTLR9mut-transfected cells from FIG. 3C. Cells were stimulated with 1 μM CpG-DNA or 10 ng/ml of the TLR-independent stimulus 12-O-tetradecanoylphorbol 13-acetate (TPA) and subsequent NF-κB induction was analyzed. Activation is expressed as fold induction compared to no stimulation.
(§1) Mutation. For mutation of wild-type mTLR9 amino acids D535 and Y537 to two alanines, the primers 5′-[…]-3′ (SEQ ID NO:5) and 5′-[…]-3′ (SEQ ID NO:6) were used to generate mTLR9-mut. A site-specific-mutagenesis kit from Stratagene (Amsterdam, Netherlands) was applied according to the manufacturer's protocol. All PCR fragments were sequenced and found error-free.
NF-κB luciferase assay. For monitoring transient NF-κB activation, 3×10^6 HEK 293 cells were electroporated at 200 volt and 950 μF with 20 ng of a NF-κB luciferase reporter plasmid (kindly provided by Patrick Baeuerle, Munich, Germany) and 1 μg mTLR2 (kindly provided by Tularik, Inc., South San Francisco, USA), mTLR9, or mTLR9-mut expression plasmid. Cells were seeded at 10^5 cells per well and after overnight culture stimulated with 1 μM phosphorothioated CpG-DNA 1668 (SEQ ID NO:1), 1 μM non-CpG-DNA 1668GC (SEQ ID NO:3), 1 μg/ml Pam3CysK4 or 1 μg/ml PHCK4 for further 8 hours. […]

[2] = target: T1, mTLR9ect-mut (D535→A and Y537→A) (Mus musculus, UniProt Q9EQU3, D535A/Y537A); assay: SPR biosensor analysis of double mutated mTLR9ect-mut on CpG-DNA; format: binding, murine; details: 200 nM protein, compared to wild-type mTLR9ect
T1 construct: mTLR9ect-mut (see below) (aa 1-816); made in house
T1 sequence (Q9EQU3 26-816 D535A/Y537A): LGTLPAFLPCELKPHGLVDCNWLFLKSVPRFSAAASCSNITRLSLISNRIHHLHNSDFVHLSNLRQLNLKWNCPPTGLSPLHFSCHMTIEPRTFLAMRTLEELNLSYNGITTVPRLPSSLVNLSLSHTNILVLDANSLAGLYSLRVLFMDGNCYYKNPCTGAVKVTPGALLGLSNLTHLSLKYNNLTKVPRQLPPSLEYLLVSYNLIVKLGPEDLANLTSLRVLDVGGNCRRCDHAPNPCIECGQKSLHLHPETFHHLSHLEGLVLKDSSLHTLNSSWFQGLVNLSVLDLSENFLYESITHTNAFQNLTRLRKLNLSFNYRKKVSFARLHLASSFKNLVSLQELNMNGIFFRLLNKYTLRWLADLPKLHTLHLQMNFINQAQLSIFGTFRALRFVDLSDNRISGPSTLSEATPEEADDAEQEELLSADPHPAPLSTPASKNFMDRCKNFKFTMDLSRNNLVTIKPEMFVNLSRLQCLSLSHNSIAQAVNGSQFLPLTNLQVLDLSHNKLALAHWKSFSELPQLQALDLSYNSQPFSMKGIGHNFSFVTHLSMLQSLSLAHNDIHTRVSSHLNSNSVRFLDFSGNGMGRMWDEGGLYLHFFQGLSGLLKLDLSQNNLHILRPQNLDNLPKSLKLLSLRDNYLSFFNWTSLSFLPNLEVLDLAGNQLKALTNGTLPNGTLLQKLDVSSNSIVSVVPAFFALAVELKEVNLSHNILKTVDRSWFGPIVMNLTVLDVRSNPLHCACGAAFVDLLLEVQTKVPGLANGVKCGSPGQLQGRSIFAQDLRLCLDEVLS
Description: FIG. 3B is a graph depicting SPR biosensor analysis of wild-type and double mutated mTLR9ect (mTLR9ect-mut, D535→A and Y537→A). Proteins were injected at 200 nM on sensor chips with immobilized CpG- and non-CpG-DNA and the sensorgrams recorded.
as §1
SPR biosensor analysis. Real-time binding of TLR9 or TLR2 was measured by surface plasmon resonance biosensor technology using the BiaCore X system (Uppsala, Sweden). For analysis of TLR9 and TLR2 interaction, biotinylated CpG-DNA and non-CpG-DNA, or biotinylated Pam3CysK4 and PHCK4, respectively, were loaded in running buffer (50 mM MES, 150 mM NaCl, 1 mM MgCl2 at pH 6.5) on SA chips precoated with streptavidin (Biacore AB, Uppsala, Sweden). Non-CpG-DNA or PHCK4 (Wiesmuller K H et al. (1989) Vaccine 7:29-33) served as reference for CpG-DNA and Pam3CysK4 interaction (structure or sequence in Table 1). […] Binding was measured at 25° C. for 750 s (delay time 300 s). […] Sensorgrams were recorded and kinetic data were calculated by the BiaCore Evaluation program (Biacore, version 3.0.1). […]

Substance: 5′-TCCATGACGTTCCTGATGCT-3′ (chemistry not given here) [CpG-DNA 1668, synthetic CpG oligodeoxynucleotide, TLR9 ligand]
- response of cells with mutated full length mTLR9 to CpG-DNA (NF-κB induction) [1]: did not respond
- binding of mTLR9ect-mut to CpG-DNA [2]: bound only weakly
